Here are results for 7 compounds from ChEMBL document CHEMBL1201862, “PubChem BioAssay data set” (2004).

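Following 48 hours of exposure in 96-well plates, responses at five concentrations were used to interpolate endpoints linearly. GI50 is the concentration that inhibits growth by half.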 Calls of active or inactive are those of the source. Rule as the data show it: active = GI50 up to about 1.1 µM and inactive = higher.

Test systems include HL-60; SK-OV-3; Hs-578T; MCF7; UACC-62; SF-268; COLO 205; IGROV-1; RXF 393; OVCAR-4; SF-295; HCT-15; SK-MEL-28; CAKI-1; DU-145; SK-MEL-2; OVCAR-8; T47D; A498; ACHN.
Holding throughout (assay): NCI-60 cell line screen, 48 h

Take `COc1cccc(C2c3cc4c(cc3OC(N3CCCC3)C2C)OCO4)c1O` (stereo not given): the GI50 in the test with HL-60 is 11.3 µM (inactive); with SK-OV-3, 4.36 µM (inactive); with Hs-578T it was 3.04 µM (inactive); in the test with MCF7 it was 6.68 µM (inactive); in the test on UACC-62 it was 4.33 µM (inactive); in the test with SF-268, 5.97 µM (inactive). The GI50 was 3.37 µM (inactive) in the test on COLO 205; 7.14 µM (inactive) in the test with IGROV-1; 3.58 µM (inactive) with RXF 393; 9.35 µM (inactive) with OVCAR-4; 3.51 µM (inactive) in the test with SF-295; 3.72 µM with HCT-15. Besides, the GI50 is 6.5 µM (inactive) in the test on SK-MEL-28; 6.32 µM (inactive) in the test on CAKI-1; 4.41 µM (inactive) in the test on DU-145; 4.14 µM (inactive) in the test with SK-MEL-2; 7.55 µM (inactive) in the test with OVCAR-8; 9.95 µM (inactive) in the test on T47D. Further, the GI50 in the test on A498 is 4.89 µM (inactive); in the test on ACHN it was 6.59 µM (inactive).
Turning to `COc1cccc(NC(=O)CC(=O)NN)c1`, the GI50 in the test on HL-60, in the test with SK-OV-3, in the test on Hs-578T, in the test on MCF7, in the test on UACC-62 and with SF-268 was > 100 µM (inactive) each time. The GI50 was > 100 µM (inactive) in the test with COLO 205; > 100 µM (inactive) in the test on IGROV-1; > 100 µM (inactive) in the test on RXF 393; > 100 µM (inactive) in the test on OVCAR-4; > 100 µM (inactive) in the test on SF-295; greater than 100 µM in the test on HCT-15. The GI50 with SK-MEL-28, in the test with CAKI-1, in the test on DU-145, with SK-MEL-2, in the test on OVCAR-8 and in the test with T47D was > 100 µM (inactive) each time. For the same compound, the GI50 in the test with A498 and with ACHN was > 100 µM (inactive) in each case.
As for `Clc1cccc(/C=N/C23CC4CC(CC(C4)C2)C3)c1Cl`, the GI50 in the test on HL-60 was 6.28 µM (inactive); with SK-OV-3, > 10 µM (inactive); with Hs-578T, > 10 µM (inactive); in the test with MCF7, > 10 µM (inactive); in the test on UACC-62, > 10 µM (inactive); with SF-268, > 10 µM (inactive). Besides, the GI50 in the test with COLO 205 is > 10 µM (inactive); in the test with IGROV-1, > 10 µM (inactive); with RXF 393 it was > 10 µM (inactive); in the test with OVCAR-4 it was > 10 µM (inactive); with SF-295 it was > 10 µM (inactive); in the test with HCT-15, greater than 10 µM. Further, the GI50 in the test on SK-MEL-28, in the test with CAKI-1, in the test with DU-145, in the test on SK-MEL-2, in the test with OVCAR-8 and in the test with T47D was > 10 µM (inactive) each time. The GI50 with A498 and in the test with ACHN was > 10 µM (inactive) each time.
On to `O=C(O)c1ccc(/C=N/N=C2c3ccccc3-c3ccccc32)cc1`, for which the GI50 in the test with HL-60 is 32.9 µM (inactive); with SK-OV-3 it was 74.3 µM (inactive); with Hs-578T it was 13.7 µM (inactive); in the test on MCF7, 33.2 µM (inactive); in the test on UACC-62, 61.8 µM (inactive); in the test with SF-268, 23.6 µM (inactive). For the same compound, the GI50 was 57.8 µM (inactive) in the test on COLO 205; 54.8 µM (inactive) in the test with IGROV-1; 89.9 µM (inactive) in the test with RXF 393; 35.8 µM (inactive) in the test with OVCAR-4; 12.7 µM (inactive) in the test with SF-295; 57.1 µM in the test with HCT-15. The GI50 with SK-MEL-28 was 62.4 µM (inactive); in the test with CAKI-1, 38.6 µM (inactive); in the test with DU-145 it was > 100 µM (inactive); in the test on SK-MEL-2, 27.4 µM (inactive); with OVCAR-8, 49.8 µM (inactive); with T47D it was 64 µM (inactive). Also, the results for the GI50 in the test on A498 and in the test with ACHN were > 100 µM (inactive) and 48.3 µM (inactive), respectively.
With `C=C(C)[C@@H]1CC[C@]2(C(=O)O)CC[C@]3(C)[C@H](CC[C@@H]4[C@@]5(C)CC[C@H](O)C(C)(C)[C@@H]5CC[C@]43C)[C@@H]12` [BETULINIC ACID], the GI50 was 2.97 µM (inactive) with HL-60; 15.9 µM (inactive) in the test with SK-OV-3; 10.8 µM (inactive) in the test on Hs-578T; 13.7 µM (inactive) in the test on MCF7; 14.1 µM (inactive) with UACC-62; 7.6 µM (inactive) with SF-268. Also, the GI50 with COLO 205 was 4.63 µM (inactive); in the test with IGROV-1 it was 11.9 µM (inactive); in the test on RXF 393 it was 2.64 µM (inactive); with OVCAR-4, 5.83 µM (inactive); with SF-295 it was 7.71 µM (inactive); in the test on HCT-15, 8.67 µM. For the same compound, the GI50 was 17.1 µM (inactive) with SK-MEL-28; 11.6 µM (inactive) in the test on CAKI-1; 9.71 µM (inactive) in the test on DU-145; 12.4 µM (inactive) in the test on SK-MEL-2; 4.85 µM (inactive) in the test on OVCAR-8; 7.13 µM (inactive) in the test with T47D. Also, the GI50 with A498 is 6.08 µM (inactive); with ACHN it was 8.28 µM (inactive).
As for `COc1ccc(/C=C/c2ccnc3ccccc23)c(OC)c1`, the GI50 with HL-60 was 3.61 µM (inactive); in the test on SK-OV-3 it was > 10 µM (inactive); in the test on Hs-578T, 5.98 µM (inactive); in the test on MCF7 it was 3.07 µM (inactive); in the test with UACC-62, 5.16 µM (inactive); in the test on SF-268 it was > 10 µM (inactive). Moreover, the GI50 with COLO 205 was 4.34 µM (inactive); in the test with IGROV-1 it was 7.87 µM (inactive); in the test on RXF 393, > 10 µM (inactive); in the test with OVCAR-4 it was > 10 µM (inactive); in the test with SF-295, 6.18 µM (inactive); in the test with HCT-15, 6.49 µM. For the same compound, the GI50 in the test with SK-MEL-28 was > 10 µM (inactive); in the test with CAKI-1, > 10 µM (inactive); with DU-145 it was > 10 µM (inactive); with SK-MEL-2, 8.51 µM (inactive); with OVCAR-8, 7.52 µM (inactive); in the test with T47D, > 10 µM (inactive). For the same compound, the figures for the GI50 in the test on A498 and in the test with ACHN were 7.87 µM (inactive) and 9.75 µM (inactive), respectively.
Consider `CC(=O)NC1C(OCc2ccccc2)OC(CO)C(O)C1OC(C)C(=O)NC(C)C(=O)NC(CCC(=O)NCCCCNc1c2ccccc2nc2cccc([N+](=O)[O-])c12)C(N)=O` (stereo not given), for which the GI50 in the test with HL-60 was 0.027 µM (active); in the test with SK-OV-3 it was 0.22 µM (active); in the test on Hs-578T, 0.171 µM (active); in the test on MCF7, 0.00995 µM (active); in the test on UACC-62 it was 0.0286 µM (active); in the test on SF-268 it was 0.0357 µM (active). In addition, the GI50 with COLO 205 is 0.0327 µM (active); with IGROV-1 it was 0.24 µM (active); with RXF 393, 0.0199 µM (active); in the test with OVCAR-4 it was 0.242 µM (active); in the test on SF-295 it was 0.196 µM (active); in the test on HCT-15 it was 0.00893 µM. The GI50 was 0.163 µM (active) with SK-MEL-28; 0.0325 µM (active) in the test on CAKI-1; 0.00887 µM (active) in the test with DU-145; 0.0944 µM (active) in the test on SK-MEL-2; 0.0228 µM (active) in the test with OVCAR-8; 0.291 µM (active) in the test with T47D. Further, the GI50 with A498 is 0.131 µM (active); in the test with ACHN it was 0.0119 µM (active).
